Measured values: US7960567B2, “Compounds and methods useful for treating asthma and allergic inflammation” (Amgen Inc., priority 2007, dated 2011)

Key:
human DP = molecular target: T1, human DP (Homo sapiens, UniProt Q13258); experiment: Human DP binding assay (3H-PGD2 binding, 293(128) cells); settings: 2 nM 3H-PGD2 and 0 nM unlabeled PGD2, read-out: IC50 observed in DP binding assay
T1 construct: Full-length human DP cDNA was generated by PCR using human genomic DNA as a template; expressed in transfected cells
T1 sequence (Q13258 1-359): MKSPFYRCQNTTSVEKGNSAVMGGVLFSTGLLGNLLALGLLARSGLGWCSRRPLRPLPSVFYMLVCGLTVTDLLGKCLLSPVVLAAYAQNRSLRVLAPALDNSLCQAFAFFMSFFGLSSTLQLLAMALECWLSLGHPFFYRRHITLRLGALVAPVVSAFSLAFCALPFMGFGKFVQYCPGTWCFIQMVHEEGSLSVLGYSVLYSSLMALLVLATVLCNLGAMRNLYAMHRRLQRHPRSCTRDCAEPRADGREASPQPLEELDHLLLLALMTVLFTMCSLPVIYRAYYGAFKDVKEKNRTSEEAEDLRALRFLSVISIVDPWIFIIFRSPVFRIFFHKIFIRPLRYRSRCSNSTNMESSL
Method: Full-length human DP cDNA was generated by PCR using human genomic DNA as a template and subsequently cloned into pcDNA3.1(+) to generate a DP expression plasmid. The plasmid was transfected into 293 cells to generate a line of cells that have stable overexpression of human DP, termed 293(128) cells, essentially as described above for CRTH2. ^3H-PGD2 binding assays were performed using 293(128) cells as described above for CRTH2 except that each assay contained 350,000 cells, and 2 nM ^3H-PGD2 and 0 nM unlabeled PGD2.

human CRTH2 = molecular target: T2, human CRTH2 (Homo sapiens, UniProt Q9Y5Y4); experiment: Human CRTH2 binding assay (3H-PGD2 binding, 293(124) cells); settings: 1 nM 3H-PGD2 and 30 nM unlabeled PGD2, read-out: IC50 observed in CRTH2 binding assay
T2 construct: Full-length human CRTH2 cDNA was generated by polymerase chain reaction (PCR); expressed in transfected cells
T2 sequence (Q9Y5Y4 1-395): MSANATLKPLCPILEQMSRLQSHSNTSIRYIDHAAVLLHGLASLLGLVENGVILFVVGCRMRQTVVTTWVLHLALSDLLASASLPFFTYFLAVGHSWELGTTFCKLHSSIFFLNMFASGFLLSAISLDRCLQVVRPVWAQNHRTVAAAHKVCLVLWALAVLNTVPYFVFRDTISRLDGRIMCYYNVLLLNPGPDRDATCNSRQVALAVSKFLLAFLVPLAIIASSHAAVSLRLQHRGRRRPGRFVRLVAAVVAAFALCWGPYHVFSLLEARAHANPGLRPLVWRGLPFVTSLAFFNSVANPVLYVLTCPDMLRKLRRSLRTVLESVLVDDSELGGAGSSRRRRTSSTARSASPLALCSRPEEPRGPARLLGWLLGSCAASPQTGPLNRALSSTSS
Method: Full-length human CRTH2 cDNA was generated by polymerase chain reaction (PCR) using human genomic DNA as template and subsequently cloned into pcDNA3.1(+) (Invitrogen Corp., Carlsbad, Calif.), generating a CRTH2 expression plasmid pHLT124. The plasmid was transfected into 293 cells, […], using LIPOFECTAMINE™ reagents (Invitrogen Corp., Carlsbad, Calif.). G418 ([…]) was added to the culture 48 h after transfection and cells were maintained under selection for 3 weeks to ensure that all surviving cells stably expressed CRTH2. These cells are labeled as 293(124) hereafter.
^3H-PGD2 binding assay was performed using 293(124) cells. In brief, cells were washed and suspended in RPMI containing 0.5% BSA and 20 mM HEPES. Each assay contained 25,000 cells, appropriate amount of test compound when necessary and a mixture of 1 nM ^3H-PGD2 (Amersham Biosciences, Piscataway, N.J.) and 30 nM of unlabeled PGD2 (Cayman Chemical Co., Ann Arbor, Mich.) in […] final volume. The cell mixture was incubated at room temperature for 2.5 h with shaking and the cells were separated from free ^3H-PGD2 and transferred onto a filter plate using a cell harvester. Radioactivity bound to the cells was measured on a liquid scintillation counter. Nonspecific binding was determined in the presence of […] of unlabeled PGD2.

IC50 (human DP) [nM]	IC50 (human CRTH2) [nM]	Compound
< 10	10 to 100	COc1cc(CC(=O)O)ccc1Oc1ccc2[nH]c(C)cc2c1NS(=O)(=O)c1ccc(Cl)cc1Cl [Example 1, 2-(4-(4-(2,4-Dichlorophenylsulfonamido)-2-methyl-1H-indol-5-yloxy)-3-methoxyphenyl)acetic acid]
1000 to 15000	100 to 1000	O=C(O)Cc1ccc(Oc2cc3c(cc2NS(=O)(=O)c2ccc(Cl)cc2)C(=O)NC3=O)c(Cl)c1 [Example 30, 2-(3-Chloro-4-(6-(4-chlorophenylsulfonamido)-1,3-dioxoisoindolin-5-yloxy)phenyl)acetic acid]
